Assay results published in patent publication US9868772B2 (INDIANA UNIVERSITY RESEARCH AND TECHNOLOGY CORPORATION, priority 2012, dated 2018).
Numbered stars: 1 amine (or outer) side, 2 acyl side, 3 side chain; on linkers, the order of the positions; unused ones are H or OH. Square brackets hold non-standard residues; d marks the D form. Side chains are listed from the residue outwards. Peptide text beside a SMILES is read from it. * marks the point of attachment. γGlu = O=C(O)[C@H](CCC(=O)[*:2])N[*:1]; Desaminohistidyl = O=C(CCc1c[nH]cn1)*; Palmitoyl = CCCCCCCCCCCCCCCC(=O)*

Legend:
Assay in all cases: cAMP induction, firefly luciferase reporter assay in HEK293 cells co-transfected with receptor
Assay type in all cases: cell-based
[1] = molecular target: T1, glucagon receptor (Homo sapiens, UniProt P47871)
T1 construct: expressed in transfected cells; host or cells: HEK293
T1 sequence (P47871 26-477): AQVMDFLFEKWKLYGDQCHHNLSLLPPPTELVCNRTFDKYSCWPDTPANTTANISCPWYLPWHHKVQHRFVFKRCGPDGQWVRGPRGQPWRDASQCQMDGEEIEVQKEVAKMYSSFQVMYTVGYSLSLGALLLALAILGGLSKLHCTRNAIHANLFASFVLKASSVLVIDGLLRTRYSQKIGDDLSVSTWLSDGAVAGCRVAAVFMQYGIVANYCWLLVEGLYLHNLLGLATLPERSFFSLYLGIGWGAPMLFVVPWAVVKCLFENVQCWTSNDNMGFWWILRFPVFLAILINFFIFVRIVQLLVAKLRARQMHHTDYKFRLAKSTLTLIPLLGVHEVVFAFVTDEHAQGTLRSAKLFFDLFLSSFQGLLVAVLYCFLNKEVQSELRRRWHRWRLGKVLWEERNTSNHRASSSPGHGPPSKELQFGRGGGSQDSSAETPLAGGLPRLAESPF
Experimental: (§1) The ability of glucagon analogs to induce cAMP was measured in a firefly luciferase-based reporter assay. […] At the end of the incubation 100 microliters of LucLite luminescence substrate reagent (Perkin-Elmer, Wellesley, Mass.) were added to each well. […] Effective 50% concentrations were calculated by using Origin software (OriginLab, Northampton, Mass.

[2] = molecular target: T2, GIP receptor (Homo sapiens, UniProt P48546)
T2 construct: expressed in transfected cells; host or cells: HEK293
T2 sequence (P48546 22-466): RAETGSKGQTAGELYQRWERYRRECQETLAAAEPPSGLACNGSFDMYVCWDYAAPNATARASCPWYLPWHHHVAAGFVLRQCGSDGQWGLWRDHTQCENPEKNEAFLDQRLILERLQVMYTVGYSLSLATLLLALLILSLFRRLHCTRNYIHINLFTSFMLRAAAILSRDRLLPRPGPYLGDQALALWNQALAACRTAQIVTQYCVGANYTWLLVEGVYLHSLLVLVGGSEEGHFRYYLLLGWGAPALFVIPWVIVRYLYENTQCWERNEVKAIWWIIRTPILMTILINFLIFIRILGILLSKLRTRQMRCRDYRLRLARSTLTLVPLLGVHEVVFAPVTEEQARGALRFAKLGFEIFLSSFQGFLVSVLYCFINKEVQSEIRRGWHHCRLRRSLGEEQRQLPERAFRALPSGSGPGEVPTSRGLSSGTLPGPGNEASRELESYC
Experimental: as §1

[3] = molecular target: T3, GLP-1 receptor (Homo sapiens, UniProt P43220)
T3 construct: expressed in transfected cells; host or cells: HEK293
T3 sequence (P43220 24-463): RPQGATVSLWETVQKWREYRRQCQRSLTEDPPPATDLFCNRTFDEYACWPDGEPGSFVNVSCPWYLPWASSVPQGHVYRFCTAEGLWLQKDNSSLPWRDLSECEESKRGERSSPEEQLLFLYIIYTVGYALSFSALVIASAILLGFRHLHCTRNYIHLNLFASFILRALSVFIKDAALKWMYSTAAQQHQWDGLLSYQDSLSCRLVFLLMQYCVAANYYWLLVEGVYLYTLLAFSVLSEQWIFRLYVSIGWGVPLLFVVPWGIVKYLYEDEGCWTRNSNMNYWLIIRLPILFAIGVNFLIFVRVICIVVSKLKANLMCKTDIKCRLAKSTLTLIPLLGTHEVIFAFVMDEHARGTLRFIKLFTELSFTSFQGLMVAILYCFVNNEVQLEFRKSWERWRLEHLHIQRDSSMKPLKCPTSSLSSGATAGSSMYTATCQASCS
Experimental: as §1

[4] = Table 2, analogs of SEQ ID NO: 10
[5] = Table 1, analogs of SEQ ID NO: 37

Compound	EC50 [1, 4] [pM]	EC50 [2, 4] [pM]	EC50 [3, 4] [pM]	EC50 [1, 5] [pM]	EC50 [2, 5] [pM]	EC50 [3, 5] [pM]
CCCCCCCCCCCCCCCC(=O)N[C@@H](CCC(=O)NCCCC[C@H](NC(=O)[C@H](CC(=O)O)NC(=O)[C@H](CO)NC(=O)[C@@H](NC(=O)[C@H](Cc1ccccc1)NC(=O)[C@@H](NC(=O)CNC(=O)[C@H](CCC(=O)O)NC(=O)[C@H](C)NC(=O)[C@@H](Cc1ccc(O)cc1)NC(C)=O)[C@@H](C)O)[C@@H](C)O)C(=O)N[C@@H](CO)C(=O)N[C@@H](CCCCN)C(=O)N[C@@H](Cc1ccc(O)cc1)C(=O)N[C@@H](CC(C)C)C(=O)N[C@@H](CC(=O)O)C(=O)N[C@@H](CCC(=O)O)C(=O)N[C@@H](CCCNC(=N)N)C(=O)N[C@@H](C)C(=O)N[C@@H](C)C(=O)N[C@@H](CCC(N)=O)C(=O)N[C@@H](CC(=O)O)C(=O)N[C@@H](Cc1ccccc1)C(=O)N[C@H](C(=O)N[C@@H](CCC(N)=O)C(=O)N[C@@H](Cc1c[nH]c2ccccc12)C(=O)N[C@@H](CC(C)C)C(=O)N[C@@H](CC(C)C)C(=O)N[C@@H](CCC(=O)O)C(=O)NCC(=O)NCC(=O)N1CCC[C@H]1C(=O)N[C@@H](CO)C(=O)N[C@@H](CO)C(=O)NCC(=O)N[C@@H](C)C(=O)N1CCC[C@H]1C(=O)N1CCC[C@H]1C(=O)N1CCC[C@H]1C(=O)N[C@@H](CO)C(N)=O)C(C)C)C(=O)O [compound 141]	419	2	6			
CCCCCCCCCCCCCCCC(=O)N[C@@H](CCC(=O)NCCCC[C@H](NC(=O)[C@H](CC(=O)O)NC(=O)[C@H](CO)NC(=O)[C@@H](NC(=O)[C@H](Cc1ccccc1)NC(=O)[C@@H](NC(=O)CNC(=O)[C@H](CCC(N)=O)NC(=O)[C@H](C)NC(=O)[C@@H](Cc1c[nH]cn1)NC(C)=O)[C@@H](C)O)[C@@H](C)O)C(=O)N[C@@H](CO)C(=O)N[C@@H](CCCCN)C(=O)N[C@@H](Cc1ccc(O)cc1)C(=O)N[C@@H](CC(C)C)C(=O)N[C@@H](CC(=O)O)C(=O)N[C@@H](CCC(=O)O)C(=O)N[C@@H](CCCNC(=N)N)C(=O)N[C@@H](C)C(=O)N[C@@H](C)C(=O)N[C@@H](CCC(N)=O)C(=O)N[C@@H](CC(=O)O)C(=O)N[C@@H](Cc1ccccc1)C(=O)N[C@H](C(=O)N[C@@H](CCC(N)=O)C(=O)N[C@@H](Cc1c[nH]c2ccccc12)C(=O)N[C@@H](CC(C)C)C(=O)N[C@@H](CC(C)C)C(=O)N[C@@H](CCC(=O)O)C(=O)NCC(=O)NCC(=O)N1CCC[C@H]1C(=O)N[C@@H](CO)C(=O)N[C@@H](CO)C(=O)NCC(=O)N[C@@H](C)C(=O)N1CCC[C@H]1C(=O)N1CCC[C@H]1C(=O)N1CCC[C@H]1C(=O)N[C@@H](CO)C(N)=O)C(C)C)C(=O)O [compound 13]				2	4	4
CCCCCCCCCCCCCCCC(=O)N[C@@H](CCC(=O)NCCCC[C@H](NC(=O)[C@H](CC(=O)O)NC(=O)[C@H](CO)NC(=O)[C@@H](NC(=O)[C@H](Cc1ccccc1)NC(=O)[C@@H](NC(=O)CNC(=O)[C@H](CCC(=O)O)NC(=O)[C@H](C)NC(=O)[C@@H](Cc1ccc(O)cc1)NC(C)=O)[C@@H](C)O)[C@@H](C)O)C(=O)N[C@@H](CO)C(=O)N[C@@H](CCCCN)C(=O)N[C@@H](Cc1ccc(O)cc1)C(=O)N[C@@H](CC(C)C)C(=O)N[C@@H](CC(=O)O)C(=O)N[C@@H](CCC(=O)O)C(=O)N[C@@H](CCCNC(=N)N)C(=O)N[C@@H](C)C(=O)N[C@@H](C)C(=O)N[C@@H](CCC(N)=O)C(=O)N[C@@H](CC(=O)O)C(=O)N[C@@H](Cc1ccccc1)C(=O)N[C@H](C(=O)N[C@@H](CCC(N)=O)C(=O)N[C@@H](Cc1c[nH]c2ccccc12)C(=O)N[C@@H](CC(C)C)C(=O)N[C@@H](CC(C)C)C(=O)N[C@@H](CCC(=O)O)C(=O)N[C@@H](C)C(=O)NCC(=O)N1CCC[C@H]1C(=O)N[C@@H](CO)C(=O)N[C@@H](CO)C(=O)NCC(=O)N[C@@H](C)C(=O)N1CCC[C@H]1C(=O)N1CCC[C@H]1C(=O)N1CCC[C@H]1C(=O)N[C@@H](CO)C(N)=O)C(C)C)C(=O)O [compound 144] (Ac-[dY]AEGTFTSDK([γGlu-Palmitoyl])SKYLDERAAQDFVQWLLEAGPSSGAPPPS-NH2)	1300	3	17			
CCCCCCCCCCCCCCCC(=O)N[C@@H](CCC(=O)NCCCC[C@H](NC(=O)[C@H](CC(=O)O)NC(=O)[C@H](CO)NC(=O)[C@@H](NC(=O)[C@H](Cc1ccccc1)NC(=O)[C@@H](NC(=O)CNC(=O)[C@H](CCC(N)=O)NC(=O)[C@H](C)NC(=O)CCc1c[nH]cn1)[C@@H](C)O)[C@@H](C)O)C(=O)N[C@@H](CO)C(=O)N[C@@H](CCCCN)C(=O)N[C@@H](Cc1ccc(O)cc1)C(=O)N[C@@H](CC(C)C)C(=O)N[C@@H](CC(=O)O)C(=O)N[C@@H](CCC(=O)O)C(=O)N[C@@H](CCCNC(=N)N)C(=O)N[C@@H](C)C(=O)N[C@@H](C)C(=O)N[C@@H](CCC(N)=O)C(=O)N[C@@H](CC(=O)O)C(=O)N[C@@H](Cc1ccccc1)C(=O)N[C@H](C(=O)N[C@@H](CCC(N)=O)C(=O)N[C@@H](Cc1c[nH]c2ccccc12)C(=O)N[C@@H](CC(C)C)C(=O)N[C@@H](CC(C)C)C(=O)N[C@@H](CCC(=O)O)C(=O)NCC(=O)NCC(=O)N1CCC[C@H]1C(=O)N[C@@H](CO)C(=O)N[C@@H](CO)C(=O)NCC(=O)N[C@@H](C)C(=O)N1CCC[C@H]1C(=O)N1CCC[C@H]1C(=O)N1CCC[C@H]1C(=O)N[C@@H](CO)C(N)=O)C(C)C)C(=O)O [compound 22] (Desaminohistidyl-AQGTFTSDK([γGlu-Palmitoyl])SKYLDERAAQDFVQWLLEGGPSSGAPPPS-NH2)				17	41	3
Ac-[dY]AQGTFTSDYSKYLDERAAQDFVQWLLEAGPSSGAPPPSK([γGlu-γGlu-Palmitoyl])G-NH2 [compound 159]	40	80	9			
CCCCCCCCCCCCCCCC(=O)N[C@@H](CCC(=O)NCCCC[C@H](NC(=O)[C@H](CC(=O)O)NC(=O)[C@H](CO)NC(=O)[C@@H](NC(=O)[C@H](Cc1ccccc1)NC(=O)[C@@H](NC(=O)CNC(=O)[C@H](CCC(N)=O)NC(=O)[C@H](C)NC(=O)[C@@H](Cc1ccc(O)cc1)NC(C)=O)[C@@H](C)O)[C@@H](C)O)C(=O)N[C@@H](CO)C(=O)N[C@@H](CCCCN)C(=O)N[C@@H](Cc1ccc(O)cc1)C(=O)N[C@@H](CC(C)C)C(=O)N[C@@H](CC(=O)O)C(=O)N[C@@H](CCC(=O)O)C(=O)N[C@@H](CCCNC(=N)N)C(=O)N[C@@H](C)C(=O)N[C@@H](C)C(=O)N[C@@H](CCC(N)=O)C(=O)N[C@@H](CC(=O)O)C(=O)N[C@@H](Cc1ccccc1)C(=O)N[C@H](C(=O)N[C@@H](CCC(N)=O)C(=O)N[C@@H](Cc1c[nH]c2ccccc12)C(=O)N[C@@H](CC(C)C)C(=O)N[C@@H](CC(C)C)C(=O)N[C@@H](CCC(=O)O)C(=O)NCC(=O)NCC(=O)N1CCC[C@H]1C(=O)N[C@@H](CO)C(=O)N[C@@H](CO)C(=O)NCC(=O)N[C@@H](C)C(=O)N1CCC[C@H]1C(=O)N1CCC[C@H]1C(=O)N1CCC[C@H]1C(=O)N[C@@H](CO)C(N)=O)C(C)C)C(=O)O [compound 12]				7	2	3
